Results as given in article PMC10988762, “Inhibition of malaria and babesiosis parasites by putative red blood cell targeting small molecules” (Frontiers in Cellular and Infection Microbiology, 2024).
Like-named read-outs stand apart in the source and are kept apart here.

Columns and labels:
[1] = test system: uninfected RBCs; details: 5x P. falciparum 3D7-IC50; 24, 48, 72h
[2] = test system: P. falciparum (3D7); experiment: Assay for inhibition of parasite proliferation via RBC-targeting (transient exposure of RBCs, wash, then infection); type: cell-based, Plasmodium falciparum; details: for antimalarial activity retained after transient exposure of RBCs, relative to continuous exposure to inhibitor: 5x P. falciparum 3D7-IC50, RBC preincubation 4-5 hours then washed, 100% = inhibition with continuous exposure, P<0.01; for inhibitory activity following transient exposure of RBCs, in words: transient vs continued exposure, dose-response format where stated, n=3
Method: All plates were frozen for storage before assay. For assay, duplicate plates were preincubated with donor O+ RBCs at 2% hematocrit at 37°C in 50µL for 4-5 hours. Following preincubation, one but not the other plate in each pair was washed 4X in complete RPMI to dilute inhibitor. We transferred RBCs from both washed and unwashed plates to black, clear bottom 96-well plates (Corning Cat. No. 3904) and supplemented these suspensions with MACS-purified P. falciparum (3D7) schizonts for a starting parasitemia of 0.1% - 0.25% at 1% hematocrit. Following 72h incubation in standard culture conditions, samples were processed for SYBR-Green I signal ([Mandt et al., 2019]). […] To identify host-targeting compounds, we compared DMSO-treated to inhibitor-treated samples (Students t-test, paired). We carried out the assay with 1 µM mefloquine (Sigma-Aldrich Cat. No. M2319) as a control for reversible inhibition. All assays were conducted in biological triplicate, with each experiment utilizing different donor RBCs. For select compounds, we carried out this same assay in a dose-response series (n=3 experiments). Following normalization to DMSO-controls, we assessed inhibitor activity following transient exposure of RBCs by Two-Way ANOVA tests for repeated measures (Graphpad Prism v9): high P values indicate support for the null hypothesis that dose-dependent inhibition is not modulated by dilution after exposure, consistent with a direct inhibitory effect of the compounds on RBCs persisting after transient exposure.

[3] = test system: uninfected RBCs; experiment: Cellular phosphatidylserine exposure assay (annexin V flow cytometry);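 on all read-outs here: flow cytometry recording 10,000 events per condition, gated on single cells, with the two experiments using blood from separate donors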; details: for PS exposure on RBCs, in words: 5x P. falciparum 3D7-IC50, 24, 48, 72h
From the text: (§3) We analyzed samples using a volumetric MACSQuant Analyzer Flow Cytometer (Miltenyi Biotec), manually resuspending each row immediately prior to sample uptake. We recorded 10,000 total events for each condition at the instrument-defined low flow rate. We assessed all compounds in 2 separate experiments with blood from different donors. […] All samples were gated for single cell events.

[4] = test system: P. falciparum strain 3D7; experiment: Inhibitor susceptibility dose-response assay (SYBR-Green I), P. falciparum 3D7; type: cell-based, Plasmodium falciparum; details: Plasmodium falciparum, read-out: IC50 (S.D.), P. falciparum-3D7
Method: (§1) The P. falciparum strains 3D7 and Dd2 were obtained from the Walter and Eliza Hall Institute (Melbourne, Australia) and the Malaria Research and Reference Reagent Resource, respectively. […] B. divergens parasites were maintained and assayed in mixed stages without synchronization.
(§2) Ring-stage P. falciparum (1%-parasitemia starting, 1%-hematocrit) and asynchronous B.divergens (0.5%-parasitemia starting, 3%-hematocrit) were incubated with plated compounds for 72h, and ring-stage P. knowlesi (1%-parasitemia starting, 1%-hematocrit) for 48h, before lysis and staining with dye. To quantify the species-specificity of the inhibitors, we divided the range of IC50s across the 4 test lines by the average IC50 across the same lines: inhibitors with increased scores show species-specific activity and reduced scores indicate broad-spectrum, pan-species activity.

[5] = test system: BdC9 line of B. divergens; experiment: Inhibitor susceptibility dose-response assay (SYBR-Green I), B. divergens; type: cell-based, Babesia divergens; details: Babesia divergens, read-out: IC50 (S.D.), B. divergens
Method: as §1, §2

[6] = in vitro; details: human
From the text: as §3

[7] = test system: P. knowlesi YH1 strain; experiment: microbe, parasite or virus in culture; type: cell-based, Plasmodium knowlesi; details: for IC50: Plasmodium knowlesi, 48 h, read-out: IC50 (S.D.), P. knowlesi
Method: as §1, §2

[8] = test system: P. falciparum strain Dd2; experiment: Inhibitor susceptibility dose-response assay (SYBR-Green I), P. falciparum Dd2; type: cell-based, Plasmodium falciparum; details: Plasmodium falciparum, read-out: IC50 (S.D.), P. falciparum-Dd2
Method: as §1, §2

[9] = test system: RBC; details: RBC assay: PS exposure ref PMID 21214270; read-out: Micromolar IC50 (RBC), PS exposure; cited from earlier work
[10] = 24h, 5x P. falciparum 3D7-IC50, % of RBCs, mean of 2 experiments
[11] = 5x P. falciparum 3D7-IC50, % of RBCs, mean of 2 experiments
[12] = 72h, 5x P. falciparum 3D7-IC50, % of RBCs, mean of 2 experiments
[13] = 3D7, 72h, ring-stage, n=3 experiments (or 2 where indicated with *)
[14] = 72h, asynchronous, n=3 experiments (or 2 where indicated with *)
[15] = uninfected RBCs (red blood cells), 1% hematocrit
[16] = DD2, 72h, ring-stage, n=3 experiments (or 2 where indicated with *)

Structure (SMILES)	inhibitory activity following transient exposure of RBCs, in words [2]	Phosphatidylserine exposure (%) 24h [3, 10]	Phosphatidylserine exposure (%) 48h [3, 11]	Phosphatidylserine exposure (%) 72h [3, 12]	hemolysis at 24 h, 5 x P. falciparum 3D7-IC50 [6, 15]	hemolysis at 48 h, 5 x P. falciparum 3D7-IC50 [6, 15]	hemolysis at 72 h, 5 x P. falciparum 3D7-IC50 [6, 15]	IC50 [7]	IC50 ([4]; 3D7, 72 h)	IC50 ([5]; 72 h)	IC50 ([8]; DD2, 72 h)	other results
COc1ccc2c(c1)CCC1C2CCC2(C)C(NCCCCCCN3C(=O)C=CC3=O)CCC12 (stereo not drawn) [U-73122]	statistically indistinguishable from inhibition with continued exposure	5%	9%	11%	-3%	16%	13%	4.4 µM	–	–	–	hemolysis of RBCs, in words [1]: lower levels; antimalarial activity retained after transient exposure of RBCs, relative to continuous exposure to inhibitor [2]: ≥ 80%; PS exposure on RBCs, in words [3]: lower levels; IC50 [4, 13]: 4 µM; IC50 [5, 14]: 20 µM; IC50 [8, 16]: 5 µM
Nc1nc(N)c2nc(-c3cccc(O)c3)c(-c3cccc(O)c3)nc2n1 [TG-100-115]	–	2%	3%	5%	-1%	12%	18%	0.8 µM	–	–	–	PS exposure on RBCs, in words [3]: similarly low levels; IC50 [4, 13]: 9 µM; IC50 [5, 14]: 13 µM; antiparasitic activity in vitro, in words, P. knowlesi ([7]; P. knowlesi): submicromolar activity; activity against P. knowlesi stronger than against the other parasite species ([7]; P. knowlesi vs other parasite species): ~ 10 x; IC50 [8, 16]: 7 µM
Nc1ccc(C2CCN(C(=O)c3ccc(Oc4ccc(C(F)(F)F)cc4)cc3)CC2)nn1 [BI 749327]	–	–	–	–	–	–	–	40 µM	25 µM	30 µM	22 µM	–
CC(C)CC(O)(CC(C)C)c1cnn(C(=O)N2CCCC2)n1 [AA74-1]	–	–	2%	–	–	–	–	–	0.25 µM	4 µM	0.5 µM	Phosphatidylserine exposure (%) 24h [3]: 1%; Phosphatidylserine exposure (%) 72h [3]: 5%; hemolysis at 24 h, 5 x P. falciparum 3D7-IC50 [6]: -6%; hemolysis at 48 h, 5 x P. falciparum 3D7-IC50 [6]: -1%; hemolysis at 72 h, 5 x P. falciparum 3D7-IC50 [6]: 2%
CCn1c2ccccc2c2cc(-n3nncc3-c3ccccc3)ccc21 [MBQ-167]	–	–	–	–	–	–	–	38 µM	33 µM	40 µM	23 µM	–
Oc1ccc2ccccc2c1SSc1c(O)ccc2ccccc12 [IPA-3]	statistically indistinguishable from inhibition with continued exposure	29%	35%	35%	-14%	11%	30%	4 µM	5 µM	15 µM	5 µM	antimalarial activity retained after transient exposure of RBCs, relative to continuous exposure to inhibitor [2]: ≥ 80%; IC50 [9]: < 5 µM
O=C1Nc2ccc(I)cc2/C1=C/c1cc(Br)c(O)c(Br)c1 [GW5074]	–	–	–	–	–	–	–	10 µM	19 µM	30 µM	13 µM	–
O=C(O)/C=C/c1cc(Br)c(Br)c(Br)c1Br [Tetrabromocinnamic acid]	–	–	–	–	–	–	–	> 80 µM	> 100 µM	> 80 µM	> 85 µM	–
OC(c1cc(C(F)(F)F)nc2c(C(F)(F)F)cccc12)C1CCCCN1 (stereo not drawn) [mefloquine]	does not retain antimalarial activity at any dose	–	–	–	–	–	–	–	–	–	–	–
